Assay results published in US20160287558A1, “ORAL PHARMACEUTICAL FORM FOR PREVENTING VASCULAR DISEASES, TABLET AS PHARMACEUTICAL FORM AND GELATIN CAPSULE AS PHARMACEUTICAL FORM” (HYPERMARCAS S.A., priority 2013, published 2016).

How the values were obtained:
carbonic anhydrase = conditions: cited from earlier work
[1] = ALLHAT study; cited from earlier work
[2] = Source text: The dissolution curves represent the expression of the release mechanism of active principles within the pharmaceutical form. Thus, it is possible to modulate the release to protect the active pharmaceutical principle, besides of improving the solubilization conditions. Excipients are used to optimize the behavior of the active pharmaceutical principle.

solubility in water [2] | SMILES | inhibition of carbonic anhydrase (carbonic anhydrase) | efficacy and prevention of cardiovascular complications compared with other drugs [1]
 | NS(=O)(=O)c1cc2c(cc1Cl)NCNS2(=O)=O [hydrochlorothiazide] | very weak inhibitors | as effective as other drugs and further prevents more cardiovascular complications than other drugs
freely soluble | CCCCc1nc(Cl)c(CO)n1Cc1ccc(-c2ccccc2-c2nn[nH]n2)cc1 [losartan] |  | 
